Results published in patent US10106558B2, “Azolobenzazine compounds, compositions comprising these compounds and their use for controlling invertebrate pests” (BASF SE, priority 2015, dated 2018).
Like-named read-outs stand apart in the source and are kept apart here.

Experiments:
Format in all cases: in vivo
[1] = system: yellow fever mosquito (Aedes aegypti); assay: whole plant or invertebrate; settings: 48 h, larval mortality visually assessed after 2 days, read-out: mortality in comparison with untreated controls
Procedure: Example B1: Action on Yellow Fever Mosquito (Aedes aegypti)
For evaluating control of yellow fever mosquito (Aedes aegypti) the test unit consisted of 96-well-microtiter plates containing 200 μl of tap water per well and 5-15 freshly hatched A. aegypti larvae.
The active compounds were formulated using a solution containing 75% (v/v) water and 25% (v/v) DMSO. Different concentrations of formulated compounds or mixtures were sprayed onto the insect diet at 2.5 μl, using a custom built micro atomizer, at two replications.
After application, microtiter plates were incubated at 28+1° C., 80+5% RH for 2 days. Larval mortality was then visually assessed.

[2] = system: Orchid Thrips (Dichromothrips corbetti); assay: Action on orchid thrips, floral-immersion technique; settings: adult thrips, 72 hours after treatment, read-out: mortality in comparison with untreated controls
Procedure: Example B2: Action on Orchid Thrips (Dichromothrips Corbetti)
Dichromothrips corbettiadults used for bioassay were obtained from a colony maintained continuously under laboratory conditions. For testing purposes, the test compound is diluted in a 1:1 mixture of acetone:water (vol:vol), plus Kinetic® HV at a rate of 0.01% v/v.
Thrips potency of each compound was evaluated by using a floral-immersion technique. All petals of individual, intact orchid flowers were dipped into treatment solution and allowed to dry in Petri dishes. Treated petals were placed into individual re-sealable plastic along with about 20 adult thrips. All test arenas were held under continuous light and a temperature of about 28° C. for duration of the assay. After 3 days, the numbers of live thrips were counted on each petal. The percent mortality was recorded 72 hours after treatment.

[3] = system: boll weevil (Anthonomus grandis); assay: Action on boll weevil, eggs on insect diet in 96-well microtiter plates; settings: 120 h, read-out: mortality in comparison with untreated controls
Procedure: Example B3: Action on Boll Weevil (Anthonomus grandis)
For evaluating control of boll weevil (Anthonomus grandis) the test unit consisted of 96-well-microtiter plates containing an insect diet and 5-10 A. grandis eggs.
(§1) The compounds were formulated using a solution containing 75% v/v water and 25% v/v DMSO. Different concentrations of formulated compounds were sprayed onto the insect diet at 5 μl, using a custom built micro atomizer, at two replications.
After application, microtiter plates were incubated at about 25±1° C. and about 75±5% relative humidity for 5 days. Egg and larval mortality was then visually assessed.

[4] = system: Mediterranean fruitfly (Ceratitis capitata); assay: Action on Mediterranean fruitfly, eggs on insect diet in microtiter plates; settings: 120 h, egg and larval mortality visually assessed after 5 days, read-out: mortality in comparison with untreated controls
Procedure: Example B5: Action on Mediterranean Fruitfly (Ceratitis capitata)
For evaluating control of Mediterranean fruitfly (Ceratitis capitata) the test unit consisted of microtiter plates containing an insect diet and 50-80 C. capitata eggs.
as §1
After application, microtiter plates were incubated at about […] and about 80+5% relative humidity for 5 days. Egg and larval mortality was then visually assessed.

[5] = system: tobacco budworm (Heliothis virescens); assay: Action on tobacco budworm, eggs on insect diet in 96-well microtiter plates; settings: 120 h, egg and larval mortality visually assessed after 5 days, read-out: mortality in comparison with untreated controls
Procedure: Example B6: Action on Tobacco Budworm (Heliothis virescens)
For evaluating control of tobacco budworm (Heliothis virescens) the test unit consisted of 96-well-microtiter plates containing an insect diet and 15-25 H. virescens eggs.
The compounds were formulated using a solution containing 75% v/v water and 25% v/v DMSO. Different concentrations of formulated compounds were sprayed onto the insect diet at 10 μl, using a custom built micro atomizer, at two replications.
After application, microtiter plates were incubated at about 28±1° C. and about 80±5% relative humidity for 5 days. Egg and larval mortality was then visually assessed.

[6] = system: Diamond Back Moth (Plutella xylostella); assay: Action on diamond back moth, dipped cabbage leaves; settings: 3rd instar larvae, 72 hours after treatment, read-out: mortality in comparison with untreated controls
Procedure: Example B9: Action on Diamond Back Moth (Plutella xylostella)
The active compound is dissolved at the desired concentration in a mixture of 1:1 (vol:vol) distilled water:acetone. Surfactant (Kinetic® HV) is added at a rate of 0.01% (vol/vol). The test solution is prepared at the day of use.
Leaves of cabbage were dipped in test solution and air-dried. Treated leaves were placed in petri dishes lined with moist filter paper and inoculated with ten 3rd instar larvae. Mortality was recorded 72 hours after treatment. Feeding damages were also recorded using a scale of 0-100%.

[7] = system: Southern Armyworm (Spodoptera eridania), 2nd instar larvae; assay: Action on southern armyworm 2nd instar larvae, sprayed lima bean plants; settings: 96 h, 4 days after treatment, read-out: mortality in comparison with untreated controls
Procedure: Example B10: Action on Southern Armyworm (Spodoptera eridania), 2nd Instar Larvae
The active compounds were formulated by a Tecan liquid handler in 100% cyclohexanone as a 10,000 ppm solution supplied in tubes. The 10,000 ppm solution was serially diluted in 100% cyclohexanone to make interim solutions. These served as stock solutions for which final dilutions were made by the Tecan in 50% acetone:50% water (v/v) into 10 or 20 ml glass vials. A nonionic surfactant (Kinetic®) was included in the solution at a volume of 0.01% (v/v). The vials were then inserted into an automated electrostatic sprayer equipped with an atomizing nozzle for application to plants/insects.
Lima bean plants (variety Sieva) were grown 2 plants to a pot and selected for treatment at the 1st true leaf stage. Test solutions were sprayed onto the foliage by an automated electrostatic plant sprayer equipped with an atomizing spray nozzle. The plants were dried in the sprayer fume hood and then removed from the sprayer. Each pot was placed into perforated plastic bags with a zip closure. About 10 to 11 armyworm larvae were placed into the bag and the bags zipped closed. Test plants were maintained in a growth room at about 25° C. and about 20-40% relative humidity for 4 days, avoiding direct exposure to fluorescent light (24 hour photoperiod) to prevent trapping of heat inside the bags. Mortality and reduced feeding were assessed 4 days after treatment, compared to untreated control plants.

[8] = 800 ppm, egg and larval mortality visually assessed after 5 days

Cc1cccc(C)c1/N=C1\SCC(=O)N1/N=C/c1ccc2c(ccc3c2ncn3-c2ccc(OC(F)(F)F)cc2)n1 [Compound C-7, (2Z)-2-(2,6-dimethylphenyl)imino-3-[(E)-[3-[4-(trifluoromethoxy)phenyl]imidazo[4,5-f]quinolin-7-yl]methyleneamino]thiazolidin-4-one]
≥ 75%: mortality at 800 ppm [1] | mortality at 500 ppm [2] | mortality at 800 ppm [3, 8] | mortality at 800 ppm [4] | mortality at 800 ppm [5] | mortality at 500 ppm [6] | mortality at 500 ppm [7]

Cc1cccc(C)c1N1C(=O)CS/C1=N\N=C\c1cnc2c(ccc3c2ncn3-c2ccc(OC(F)(F)F)cc2)c1 [Compound C-15, (2Z)-3-(2,6-dimethylphenyl)-2-[(E)-[3-[4-(trifluoromethoxy)phenyl]imidazo[4,5-h]quinolin-7-yl]methylenehydrazono]thiazolidin-4-one]
≥ 75%: mortality at 800 ppm [1] | mortality at 500 ppm [2] | mortality at 800 ppm [3, 8] | mortality at 800 ppm [4] | mortality at 800 ppm [5] | mortality at 500 ppm [6] | mortality at 500 ppm [7]

CC(C)c1ccccc1NC(=S)N/N=C/c1ccc2c(ccc3c2ncn3-c2ccc(OC(F)F)cc2)n1 [Compound C-31, 1-[(E)-[3-[4-(difluoromethoxy)phenyl]imidazo[4,5-f]quinolin-7-yl]methyleneamino]-3-(2-isopropylphenyl)thiourea]
≥ 75%: mortality at 500 ppm [2] | mortality at 500 ppm [6]

CC(C)c1ccccc1N1C(=O)CS/C1=N\N=C\c1cc2ccc3c(ncn3-c3ccc(OC(F)(F)F)cc3)c2cn1 [Compound C-26, (2Z)-3-(2-isopropylphenyl)-2-[(E)-[3-[4-(trifluoromethoxy)phenyl]imidazo[4,5-h]isoquinolin-7-yl]methylenehydrazono]thiazolidin-4-one]
≥ 75%: mortality at 800 ppm [1] | mortality at 500 ppm [2] | mortality at 800 ppm [3, 8] | mortality at 800 ppm [4] | mortality at 800 ppm [5] | mortality at 500 ppm [6] | mortality at 500 ppm [7]

CC(C)c1ccccc1N1C(=O)CS/C1=N/N=C/c1ccc2c(ccc3c2ncn3-c2ccc(OC(F)F)cc2)n1 [Compound C-32, (2E)-2-[(E)-[3-[4-(difluoromethoxy)phenyl]imidazo[4,5-f]quinolin-7-yl]methylenehydrazono]-3-(2-isopropylphenyl)thiazolidin-4-one]
≥ 75%: mortality at 500 ppm [2] | mortality at 500 ppm [6]

CC(C)c1ccccc1NC(=S)N/N=C/c1cnc2c(ccc3c2ncn3-c2ccc(OC(F)(F)F)cc2)c1 [Compound C-13, 1-(2-isopropylphenyl)-3-[(E)-[3-[4-(trifluoromethoxy)phenyl]imidazo[4,5-h]quinolin-7-yl]methyleneamino]thiourea]
≥ 75%: mortality at 800 ppm [3, 8] | mortality at 800 ppm [4] | mortality at 800 ppm [5] | mortality at 500 ppm [6] | mortality at 500 ppm [7]

Cc1cccc(C)c1NC(=S)N/N=C/c1ccc2c(ccc3c2ncn3-c2ccc(OC(F)(F)F)cc2)n1 [Compound C-1, 1-(2,6-dimethylphenyl)-3-[(E)-[3-[4-(trifluoromethoxy)phenyl]imidazo[4,5-f]quinolin-7-yl]methyleneamino]thiourea]
≥ 75%: mortality at 800 ppm [1] | mortality at 800 ppm [3, 8] | mortality at 800 ppm [4] | mortality at 800 ppm [5]

CC(C)c1ccccc1NC(=S)N/N=C/c1cc2ccc3c(ncn3-c3ccc(OC(F)(F)F)cc3)c2cn1 [Compound C-24, 1-(2-isopropylphenyl)-3-[(E)-[3-[4-(trifluoromethoxy)phenyl]imidazo[4,5-h]isoquinolin-7-yl]methyleneamino]thiourea]
≥ 75%: mortality at 800 ppm [3, 8] | mortality at 800 ppm [4] | mortality at 800 ppm [5] | mortality at 500 ppm [6] | mortality at 500 ppm [7]

CC(C)c1ccccc1N1CCCS/C1=N/N=C/c1ccc2c(ccc3c2ncn3-c2ccc(OC(F)(F)F)cc2)n1 [Compound C-22, (E)-3-(2-isopropylphenyl)-N-[(E)-[3-[4-(trifluoromethoxy)phenyl]imidazo[4,5-f]quinolin-7-yl]methyleneamino]-1,3-thiazinan-2-imine]
≥ 75%: mortality at 800 ppm [1] | mortality at 500 ppm [2] | mortality at 800 ppm [3, 8] | mortality at 800 ppm [4] | mortality at 800 ppm [5] | mortality at 500 ppm [6]

CC1CCC(C(C)C)C(OC(=O)Nc2ccc3c(ccc4c3ncn4-c3ccc(OC(F)(F)F)cc3)n2)C1 (centres unmarked) [Compound C-12, (2-isopropyl-5-methyl-cyclohexyl) N-[3-[4-(trifluoromethoxy)phenyl]imidazo[4,5-f]quinolin-7-yl]carbamate]
≥ 75%: mortality at 800 ppm [3]

Cc1cccc(C)c1NC(=S)N/N=C/c1cnc2c(ccc3c2ncn3-c2ccc(OC(F)(F)F)cc2)c1 [Compound C-14, 1-(2,6-dimethylphenyl)-3-[(E)-[3-[4-(trifluoromethoxy)phenyl]imidazo[4,5-h]quinolin-7-yl]methyleneamino]thiourea]
≥ 75%: mortality at 800 ppm [1] | mortality at 500 ppm [2] | mortality at 800 ppm [3, 8] | mortality at 800 ppm [4] | mortality at 800 ppm [5] | mortality at 500 ppm [6]

Cc1cccc(C)c1NC(=S)N/N=C/c1cc2ccc3c(ncn3-c3ccc(OC(F)(F)F)cc3)c2cn1 [Compound C-25, 1-(2,6-dimethylphenyl)-3-[(E)-[3-[4-(trifluoromethoxy)phenyl]imidazo[4,5-h]isoquinolin-7-yl]methyleneamino]thiourea]
≥ 75%: mortality at 800 ppm [3, 8] | mortality at 800 ppm [4] | mortality at 800 ppm [5] | mortality at 500 ppm [6]
